Results: EP4553077A1 (Kinoteck Therapeutics Co., Ltd, priority 2022, dated 2024)

Legend:
SNU16 cells = assay: Proliferation inhibition, CCK-8 colorimetric method; assay type: cell-based
Experimental: (§1) CCK-8 (Bimake/B34304) colorimetric method was used to detect the in vitro proliferation inhibitory effect of compounds on suspended or adherent cells in this experiment. The specific experimental steps were as follows: • 1) Cell plating: SNU16 and A204 tumor cells (cells from Shanghai Institute of Organic Chemistry, Chinese Academy of Sciences) in the logarithmic growth phase were digested and centrifuged for trypan blue counting, and the cells were seeded into a transparent 96 well plate at a density of 4000 cells/100 µ 1/well. […] The test compound and control compound stock solution were diluted with the corresponding culture medium required for cell culture (with or without solvent DMSO) to obtain a series of working solutions, with concentrations of twice the final concentration. The solvent DMSO contents in each concentration group were consistent with that of the solvent control group. The final concentration of A204 cells started at 10 µM and was diluted twice.
(§2) Calculation of cell survival rate: Cell survival rate (%)=[(As-Ac)/(Ab-Ac)] × 100%] (As: experimental well; Ab: Solvent control well; Ac: Blank well).

A204 cells = assay: as above; assay type: cell-based; conditions: 72 h
Experimental: as §1, §2

Ba/F3-TEL-FGFR2 = Ba/F3-TEL-FGFR2 (Homo sapiens, UniProt P21802+P41212); assay: Cell viability (proliferation inhibition) of Ba/F3 cells, CellTiter Glo; conditions: read-out: Ba/F3 cell FGFR2 (IC50 nM), 72 h
Ba/F3-TEL-FGFR1 = Ba/F3-TEL-FGFR1 (Homo sapiens, UniProt P11362+P41212); assay: as above; conditions: read-out: Ba/F3 cell FGFR1 (IC50 nM), 72 h
[1] = Pharmacokinetic test in rats; assay type: in vivo, male SD rats; conditions: rat, plasma, oral gavage administration, 10 mg/kg
Experimental: Rat pharmacokinetic experiments were performed using male SD rats, 180-220g, provided by Beijing Vital River Laboratory Animal Technology Co., Ltd. 3 rats that were fasted overnight were taken, and administered orally by gavage (10 mg/kg). Blood samples were collected before administration, as well as 5, 15, 30 min and 1, 2, 4, 6, 8, 24 h after administration; another 3 rats were taken and administered intravenously (1 mg/kg), blood samples were collected before administration, as well as 5, 15, 30 min and 1, 2, 4, 6, 8, 24 h after administration. Blood sample was centrifuged at 6800g, 2-8 °C for 6 min, and plasma was collected, and stored at -80 °C. Plasma of each time point was taken, 10 times the amount of 50% methanol acetonitrile solution containing internal standard was added, and mixed by vortex for 5 min, centrifuged at 18000 rpm at 4 °C for 10 min, and the supernatant was taken directly for LC-MS/MS analysis. The main pharmacokinetic parameters were analyzed using WinNonlin8.2 software for non compartmental model analysis. Table 3: pharmacokinetic test in rats results of test compounds

Ba/F3-TEL-FGFR2, sequence (P21802 481-770 limits assumed, one chain of several): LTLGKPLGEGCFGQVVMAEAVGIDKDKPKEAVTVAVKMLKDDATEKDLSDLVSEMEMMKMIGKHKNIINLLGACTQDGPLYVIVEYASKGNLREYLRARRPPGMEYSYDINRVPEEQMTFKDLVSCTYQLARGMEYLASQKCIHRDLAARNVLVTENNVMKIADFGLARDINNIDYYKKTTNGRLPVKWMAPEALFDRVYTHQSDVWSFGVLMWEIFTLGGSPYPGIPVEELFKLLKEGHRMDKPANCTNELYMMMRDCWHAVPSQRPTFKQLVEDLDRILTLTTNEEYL
Ba/F3-TEL-FGFR1, sequence (P11362 478-767 limits assumed, one chain of several): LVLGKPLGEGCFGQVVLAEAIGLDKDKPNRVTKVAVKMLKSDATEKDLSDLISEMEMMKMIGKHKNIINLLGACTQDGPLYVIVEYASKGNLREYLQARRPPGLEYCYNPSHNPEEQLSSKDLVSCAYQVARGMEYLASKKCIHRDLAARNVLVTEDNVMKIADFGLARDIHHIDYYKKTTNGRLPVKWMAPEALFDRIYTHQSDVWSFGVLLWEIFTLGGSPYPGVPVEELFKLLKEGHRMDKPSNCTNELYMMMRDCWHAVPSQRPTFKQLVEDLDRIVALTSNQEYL

SMILES	IC50 (SNU16 cells; Homo sapiens, SNU-16, 72 h) [nM]	IC50 (A204 cells; Homo sapiens) [nM]	IC50 (Ba/F3-TEL-FGFR2) [nM]	IC50 (Ba/F3-TEL-FGFR1) [nM]	other results
CCN1CCN(c2ccc(Nc3cc(N(C)C(=O)Nc4c(Cl)c(OC)cc(OC)c4Cl)ncn3)cc2)CC1 [BGJ398, reference compound]	4.3	100	–	–	–
C=C(C)C(=O)Nc1ccc(-c2c(-c3ccc(N=S4(=O)CCC4)cc3)c3c(N)ncnc3n2C)c(F)c1 [Compound 8]	1.34	618	0.7	600	AUC(0-t) [1]: 630 ng·h/mL; Cmax [1]: 352 ng/mL; Tmax [1]: 15 min; half-life [1]: 109 min
C=C(F)C(=O)Nc1ccc(-c2c(-c3ccc(N=S4(=O)CCCC4)c(F)c3)c3c(N)ncnc3n2C)cc1 [Compound 21, N-(4-(4-amino-5-(3-fluoro-4-((1-oxotetrahydro-1 λ^6-thiophene-1-ylidene)amino)phenyl) -7-methyl-7H-pyrrolo [2,3-d]pyrimidin-6-yl)phenyl) -2-fluoroacrylamide]	1.72	333	0.8	–	–
C=C(C)C(=O)Nc1ccc(-c2c(-c3ccc(N=S4(=O)CCCC4)c(F)c3)c3c(N)ncnc3n2C)c(C)c1 [Compound 22, N-(4-(4-amino-5-(3-fluoro-4-((1-oxotetrahydro-1 λ^6-thiophene-1-ylidene)amino)phenyl) -7-methyl-7H-pyrrolo [2,3-d]pyrimidin-6-yl) -3-methylphenyl) methacrylamide]	4.97	1610	2.7	717	–
C=C(C)C(=O)Nc1ccc(-c2c(-c3ccc(N=S(=O)(N(C)C)C(F)(F)F)cc3)c3c(N)ncnc3n2C)c(F)c1 (stereo not shown) [Compound 32]	–	–	0.4	–	IC50 (SNU16 cells; 72 h): 9.56 nM; IC50 (A204 cells): 2250 nM
CC#CC(=O)Nc1ccc(-c2c(-c3ccc(N=S4(=O)CCCCC4)c(F)c3)c3c(N)ncnc3n2C)cc1 [Compound 35, N-(4-(4-amino-5-(3-fluoro-4-((1-oxotetrahydro-2H-1 λ^6-thiopyran-1-ylidene)amino)phenyl) -7-methyl-7H-pyrrolo [2,3-d]pyrimidin-6-yl)phenyl) but-2-ynamide]	4.91	406	4.4	–	–
C=C(C)C(=O)Nc1ccc(-c2c(-c3ccc(N=S4(=O)CC(C)(C)C4)cc3)c3c(N)ncnc3n2C)c(F)c1 [Compound 63]	–	–	1.1	396	AUC(0-t) [1]: 1700 ng·h/mL; Cmax [1]: 556 ng/mL; Tmax [1]: 30 min; half-life [1]: 155 min
C=C(F)C(=O)Nc1ccc(-c2c(-c3ccc(N=S4(=O)CCCCC4)cc3)c3c(N)ncnc3n2C)cc1 [Compound 68, N-(4-(4-amino-7-methyl-5-(4-((1-oxotetrahydro-2H-1 λ^6-thiopyran-1-ylidene)amino)phenyl)-7H-pyrrolo[2,3-d]pyrimidin-6-yl)phenyl)-2-fluoroacrylamide]	1.65	267	0.5	–	–
C=C(C)C(=O)Nc1ccc(-c2c(-c3ccc(N=S4(=O)CCC4)c(F)c3)c3c(N)ncnc3n2C)c(Cl)c1 [Compound 74, N-(4-(4-amino-5-(3-fluoro-4-(1-oxo-1λ^6-thietan-1-imino)phenyl) -7-methyl-7H-pyrrolo[2,3-d]pyrimidin-6-yl)-3-chlorophenyl)methacrylamide]	1.19	595	0.5	300	–
[2H]C([2H])([2H])n1c(-c2ccc(NC(=O)C(=C)C)cc2Cl)c(-c2ccc(N=S3(=O)CCC3)c(F)c2)c2c(N)ncnc21 [Compound 84, N-(4-(4-amino-5-(3-fluoro-4-(1-oxo-1λ^6-thietan-1-imino)phenyl)-7-(methyl-d3)-7H-pyrrolo[2,3-d]pyrimidin-6-yl)-3-chlorophenyl)methacrylamide]	–	–	0.8	250	–
C=C(C)C(=O)Nc1ccc(-c2c(-c3ccc(N=S4(=O)CCCC4)c(C)c3)c3c(N)ncnc3n2C)c(F)c1 [Compound 87, N-(4-(4-amino-7-methyl-5-(3-methyl-4-((1-tetrahydro-1λ^6-thiophene-1-ylidene)amino)phenyl) -7H-pyrrolo [2,3-d]pyrimidin-6-yl) -3-fluorophenyl) methacrylamide]	–	–	2.1	666	–
C=C(C)C(=O)Nc1ccc(-c2c(-c3ccc(N=S4(=O)CCCC4)c(C(F)F)c3)c3c(N)ncnc3n2C)c(F)c1 [Compound 89, N-(4-(4-amino-5-(3-(difluoromethyl) -4-((1-tetrahydro-1λ^6-thiophene-1-ylidene)amino)phenyl) -7-methyl-7H-pyrrolo [2,3-d]pyrimidin-6-yl) -3-fluorophenyl) methacrylamide]	–	–	6.5	686	–
[2H]C([2H])([2H])n1c(-c2ccc(NC(=O)C(=C)C)cc2Cl)c(-c2ccc(N=S3(=O)CCC3)c(Cl)c2)c2c(N)ncnc21 [Compound 95, N-(4-(4-amino-5-(3-chloro-4-((1-oxo-1 λ^6-thietan-1-ylidene)amino)phenyl) -7-(methyl-d3) -7H-pyrrolo [2,3-d]pyrimidin-6-yl) -3-chlorophenyl) methacrylamide]	–	–	0.7	484	–
[2H]C([2H])([2H])n1c(-c2ccc(NC(=O)C(=C)C)cc2F)c(-c2ccc(N=S3(=O)CCC3)c(F)c2)c2c(N)ncnc21 [Compound 97, N-(4-(4-amino-5-(3-fluoro-4-((1-oxo-1 λ^6-thiophene-1-ylidene)amino)phenyl) -7-(methyl-d3) -7H-pyrrole [2,3-d]pyrimidin-6-yl) -3-fluorophenyl) methacrylamide]	2.66	764	1.9	480	–
[2H]C([2H])([2H])n1c(-c2ccc(NC(=O)C(=C)C)cc2F)c(-c2ccc(N=S3(=O)C=CC=C3)cc2)c2c(N)ncnc21 [Compound 98, N-(4-(4-amino-7-(methyl-d3) -5-(4-((1-oxo-1 λ^6-thiophene-1-ylidene)amino)phenyl) -7H-pyrrolo [2,3-d]pyrimidin-6-yl) -3-fluorophenyl) methacrylamide]	1.81	845	0.6	416	–
C=C(C)C(=O)Nc1ccc(-c2c(-c3ccc(N=S(=O)(CC)CC)cc3)c3c(N)ncnc3n2C)c(Cl)c1 [Compound 102]	2.63	502	0.6	–	–
C=C(C)C(=O)Nc1ccc(-c2c(-c3ccc(N=S4(=O)CCC4)c(Cl)c3)c3c(N)ncnc3n2C)c(F)c1 [Compound 104]	5.51	1020	0.9	640	–
C=C(C)C(=O)Nc1ccc(-c2c(-c3ccc(N=S(C)(C)=O)cc3)c3c(N)ncnc3n2C)c(F)c1 [Compound 107]	–	–	15.6	3630	–
[2H]C([2H])([2H])n1c(-c2ccc(NC(=O)C(=C)C)cc2F)c(-c2ccc(N=S(=O)(CC)CC)cc2)c2c(N)ncnc21 [Compound 109]	9.38	1040	4.5	–	–
C=C(C)C(=O)Nc1ccc(-c2c(-c3ccc(Oc4nccc(C)n4)c(F)c3)c3c(N)ncnc3n2C)cc1 [Control compound I, reference compound]	13.2	3220	–	–	AUC(0-t) ([1]; male, SD): 606 ng·h/mL; Cmax ([1]; male, SD): 141 ng/mL; Tmax ([1]; male, SD): 40.2 min; half-life ([1]; male, SD): 51 min
